From paper PMC4945070 (PLoS Neglected Tropical Diseases, 2016)

Columns and labels:
[1] = target: H. contortus L-AChR1.1 (UNC-63, UNC-38, ACR-8, UNC-29.1) (Haemonchus contortus, UniProt A9XX24+D6MYE9+D6MYF3+D6MYF4); assay: cell-based; conditions: for Emax at 100 µM: agonists at 100 μM, normalized to 100 μM acetylcholine, read-out: Max. Current ± S.E.; for blocking of ACh elicited currents / Max. Inhibition ± S.E.: dTC 100 μM, DHβE 10 μM, MECA 30 μM; for blocking of ACh elicited currents: 100 μM ACh; for Max. Inhibition ± S.E.: inhibition of 100 μM ACh current
Experimental: (§1) The H. contortus cDNAs encoding AChR subunits and ancillary proteins were available as expression clones in the pTB207 vector and C. elegans expression clones were a gift from T. Boulin.. cRNA synthesis of each construct required NheI-linearized templates and was performed with the mMessage mMachine T7 Kit (Ambion) according to the manufacturer’s instructions. cRNAs were precipitated with lithium chloride and redissolved in RNAse-free water and stored at -80°C. cRNA concentration was determined using a Nanodrop spectrophotometer (Thermo Scientific) and cRNA purity and integrity was assessed by electrophoresis through a 1% gel stained with GreenGlo nucleic acid dye (Denville Scientific Inc.).
(§2) Oocytes were collected from mature Xenopus females according to standard procedures and incubated at 19°C in a ND96 solution (NaCl 96 mM, KCl 2 mM, CaCl2 1.8 mM, MgCl2 1 mM, and HEPES 5 mM, pH 7.3 supplemented with sodium pyruvate 2.5 mM). Defolliculated oocytes were injected into the animal pole with approximately 36 nL of a cRNA mix containing 50 ng/μL of each cRNA in RNAse-free water using the Nanoject system (Drummond Scientific, Broomall, PA). Negative controls consisted of oocytes injected with RNAse-free water. Oocytes were then stored at 19°C in ND96 for 5 days to allow receptor expression. In order to prevent activation of endogenous calcium-activated chloride channels, the oocytes were incubated in ND96 supplemented with 100 μM of the calcium chelator BAPTA-AM, 4h prior to recording.
(§3) Two-electrode voltage-clamp experiments were carried out using a perfusion system connected to a flat RC-1Z chamber (Harvard Apparatus). Glass electrodes were filled with 3M KCl and checked for resistance between 1 and 3 MΩ. The oocyte bath was connected to the ground through a 3 M KCl agar bridge. Agonist and antagonists were dissolved or diluted in recording solution (100 mM NaCl, 2.5 mM KCl, 1 mM CaCl2, 5 mM HEPES, pH 7.3). All measurements were performed using a Geneclamp 500B amplifier and Digidata 1322M (Axon Instruments), oocytes were voltage-clamped at -60 mV. Drug solutions were applied to oocytes by gravity flow using perfusion syringes directly connected to the chamber. Data were collected and analyzed using Clampex 9.2 and Clampfit 9.2 (Axon Instruments, Sunnyvale, CA, USA). Traces were filtered at 30 Hz and analyzed using GraphPad Prism 5.0 software (GraphPad Software, San Diego, CA, USA). Final results are presented as means ± SE.

[2] = target: H. contortus L-AChR1.3 (UNC-63, UNC-38, ACR-8, UNC-29.3) (Haemonchus contortus, UniProt A9XX24+D6MYF1+D6MYF3+D6MYF4); assay: cell-based; conditions: for Emax at 100 µM: agonists at 100 μM, normalized to 100 μM acetylcholine, read-out: Max. Current ± S.E.; for blocking of ACh elicited currents / Max Inhibition ± S.E.: dTC 100 μM, DHβE 10 μM, MECA 30 μM; for blocking of ACh elicited currents: 100 μM ACh; for Max Inhibition ± S.E.: inhibition of 100 μM ACh current
Experimental: as §1, §2, §3

[3] = target: H. contortus L-AChR1.1 with added UNC-29.2 (Haemonchus contortus, UniProt A9XX24+D6MYE9+D6MYF3+D6MYF4); assay: Two-electrode voltage clamp of L-AChR1.1 supplemented with unc-29.2 cRNA in Xenopus oocytes; assay type: cell-based
Text: Typically, such a situation can be identified by a change in the pharmacological properties of a receptor with addition of the second subunit. To address this, we examined the possibility that UNC-29.2 may interfere with or modify the properties of the reconstituted L-AChR1.1. We prepared oocytes injected with cRNAs to express the H. contortus L-AChR1.1 and supplemented this with an increasing (0.2, 1, 5 times) concentration of cRNA for UNC-29.2 relative to UNC-29.1.
as §1, §2, §3

[4] = test system: C. elegans L-AChR subunits (Cel-unc-63, Cel-unc-38, Cel-lev-8, Cel-lev-1) with Hco-unc-29 paralog; assay: Two-electrode voltage clamp of C. elegans / H. contortus AChR subunit admixtures in Xenopus oocytes; assay type: cell-based
Text: To confirm that the LEV sensitivity rescue could be due to the functional incorporation of parasite protein into the C. elegans L-AChR, we injected into Xenopus oocytes, cRNA admixtures of the four essential C. elegans L-AChR subunits: Cel-unc-63, Cel-unc-38, Cel-lev-8 and Cel-lev-1, the three H. contortus accessory proteins: ric-3, unc-50 and unc-74, and the Cel-unc-29 or each Hco-unc-29 paralog in turn. Reconstitution of the C. elegans L-AChR with Cel-unc-29 produced functional channels as previously described, confirming that the H. contortus accessory proteins are functional between species. Omitting unc-29 produced no response, so any current produced using parasite genes must involve their incorporation into a functional L-AChR. […] UNC-29.1 produced an average of 500 μA currents, while the other three produced reproducible currents below 200 nA with UNC-29.2 producing the smallest response on average (S1 Fig).
as §1, with “Inc.). […]” for “Inc.).”
(§4) Two-electrode voltage-clamp experiments were carried out using a perfusion system connected to a flat RC-1Z chamber (Harvard Apparatus). […] Data were collected and analyzed using Clampex 9.2 and Clampfit 9.2 (Axon Instruments, Sunnyvale, CA, USA). Traces were filtered at 30 Hz and analyzed using GraphPad Prism 5.0 software (GraphPad Software, San Diego, CA, USA). […]

[5] = test system: H. contortus L-AChR1.2 (UNC-63, UNC-38, ACR-8, UNC-29.2); assay type: cell-based, Haemonchus contortus
Experimental: as §1, §2
as §4, with “Apparatus). Glass electrodes were filled with 3M KCl and checked for resistance between 1 and 3 MΩ. The oocyte bath was connected to the ground through a 3 M KCl agar bridge.” for “Apparatus).”

[6] = target: H. contortus L-AChR1.4 (UNC-63, UNC-38, ACR-8, UNC-29.4) (Haemonchus contortus, UniProt A9XX24+D6MYF2+D6MYF3+D6MYF4); assay: cell-based; assay type: cell-based; conditions: for Emax at 100 µM: agonists at 100 μM, normalized to 100 μM acetylcholine, read-out: Max. Current ± S.E.; for blocking of ACh elicited currents / Max Inhibition ± S.E.: dTC 100 μM, DHβE 10 μM, MECA 30 μM; for blocking of ACh elicited currents: 100 μM ACh; for Max Inhibition ± S.E.: inhibition of 100 μM ACh current
Experimental: as §1, §2, §3

CC(=O)OCC[N+](C)(C)C [ACh, Acetylcholine chloride] was tested, and the “Max ACh Current” value ([1]; L-AChR1.1 (Hco-UNC-29.1)) was roughly 1.5 μA, the Hill ([1]; L-AChR1.1, Hill coefficient of concentration-response curve) was 0.88 ± 0.05 and the Emax at 100 µM ([1]; L-AChR1.1) was 100%. For the same compound, the “Max ACh Current” value ([2]; L-AChR1.3 (Hco-UNC-29.3)) was roughly 1.5 μA, the Hill ([2]; L-AChR1.3, Hill coefficient of concentration-response curve) was 0.89 ± 0.05 and the Emax at 100 µM ([2]; L-AChR1.3) was 100%. For the same compound, the “effect of unc-29.2 cRNA on the pharmacological response” value ([3]; 0.2, 1, 5 times unc-29.2 cRNA relative to UNC-29.1) was “no effect”, the Hill ([3]; 29.1 : 29.2 cRNA 1 : 0.2) was 0.91 ± 0.08 and the Hill ([3]; 29.1 : 29.2 cRNA 1 : 1) was 0.96 ± 0.13. For the same compound, the Hill ([3]; 29.1 : 29.2 cRNA 1 : 5) was 1.09 ± 0.10, the “average current on perfusion of 100 μM ACh” value ([4]; admixture with UNC-29.1) was 500 μA and the “current on perfusion of 100 μM ACh” value ([4]; admixtures with the other three paralogs (UNC-29.2, UNC-29.3, UNC-29.4)) was “below 200 nA”. The “current in response to 100 μM perfusion” value ([5]; UNC-29.1 replaced by UNC-29.2, n = 18) was “failed to produce any detectable current”, the “Max ACh Current” value ([5]; receptor with Hco-UNC-29.2) was 0 μA and the “Max ACh Current” value ([6]; L-AChR1.4 (Hco-UNC-29.4)) was roughly 500 nA. The Hill ([6]; L-AChR1.4, Hill coefficient of concentration-response curve) was 1.12 ± 0.04 and the Emax at 100 µM ([6]; L-AChR1.4) was 100%.

Compound C[N+](C)(CCOc1ccccc1)Cc1ccccc1 [Bephenium, bephenium hydroxynaphtoate] has an Emax at 100 µM ([1]; L-AChR1.1) of 13.9 ± 1.7%, an Emax at 100 µM ([2]; L-AChR1.3) of 9.59 ± 0.83% and an Emax at 100 µM ([6]; L-AChR1.4) of 6.45 ± 0.84%.

COc1cc2c3cc1Oc1cc(ccc1O)C[C@@H]1c4c(cc(OC)c(O)c4Oc4ccc(cc4)C[C@@H]3N(C)CC2)CC[N+]1(C)C [D-turbocurarine, (+)-tubocurarine chloride hydrate] was tested, and the “blocking of ACh elicited currents” value ([1]; L-AChR1.1) was “efficiently blocked the ACh responses”, the “Max. Inhibition ± S.E.” value ([1]; L-AChR1.1) was 99.63 ± 0.35 and the “blocking of ACh elicited currents” value ([2]; L-AChR1.3) was “efficiently blocked the ACh responses”. The “Max Inhibition ± S.E.” value ([2]; L-AChR1.3) was 99.98 ± 0.02, the “blocking of ACh elicited currents” value ([6]; L-AChR1.4) was “efficiently blocked the ACh responses” and the “Max Inhibition ± S.E.” value ([6]; L-AChR1.4) was 97.52 ± 1.09.

With Br.CO[C@H]1CC=C2CCN3CCC4=C(CC(=O)OC4)[C@]23C1 [DHßE, Dihydro-berythroidine hydrobromide] the “blocking of ACh elicited currents” value ([1]; L-AChR1.1) was “weak average inhibition”, the “Max. Inhibition ± S.E.” value ([1]; L-AChR1.1) was 15.98 ± 2.16 and the “blocking of ACh elicited currents” value ([2]; L-AChR1.3) was “weak average inhibition”. The “Max Inhibition ± S.E.” value ([2]; L-AChR1.3) was 23.55 ± 1.94, the “blocking of ACh elicited currents” value ([6]; L-AChR1.4) was “weak average inhibition” and the “Max Inhibition ± S.E.” value ([6]; L-AChR1.4) was 16.51 ± 5.73.
